Values joined by “and” are separate entries in the source; they are usually repeats but may differ in a detail not shown here. Identical values can stand only once. Like-named read-outs stand apart in the source and are kept apart here.
How the values were obtained:
[1] = target: T1, MMP-2 (Homo sapiens, UniProt P08253); test: MMP-2 inhibition assay (fluorogenic peptide substrate); type: biochemical; conditions: for IC50: n.d: not detected
T1 construct: purchased Sino Biological 10082-HNAH
T1 sequence (P08253 110-660): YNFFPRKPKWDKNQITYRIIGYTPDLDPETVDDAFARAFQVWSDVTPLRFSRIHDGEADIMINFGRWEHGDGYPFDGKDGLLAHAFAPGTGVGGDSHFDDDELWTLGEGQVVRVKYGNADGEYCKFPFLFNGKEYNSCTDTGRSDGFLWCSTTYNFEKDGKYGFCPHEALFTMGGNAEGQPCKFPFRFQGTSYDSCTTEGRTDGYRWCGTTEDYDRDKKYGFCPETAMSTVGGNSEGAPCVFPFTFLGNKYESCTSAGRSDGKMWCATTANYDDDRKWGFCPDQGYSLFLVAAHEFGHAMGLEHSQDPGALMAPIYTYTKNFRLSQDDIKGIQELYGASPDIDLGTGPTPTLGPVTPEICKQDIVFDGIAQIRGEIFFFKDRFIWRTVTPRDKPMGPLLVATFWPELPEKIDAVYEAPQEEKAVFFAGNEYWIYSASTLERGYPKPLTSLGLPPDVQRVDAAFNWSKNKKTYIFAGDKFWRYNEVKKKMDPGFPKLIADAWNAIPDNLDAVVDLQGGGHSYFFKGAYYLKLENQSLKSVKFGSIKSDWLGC
Method: (§1) The inhibition by the small molecule compounds against MMP-2/MMP-9 was measured using an assay probing the enzyme proteolytic activity on the substrate DNP-Pro-Leu-Gly-Met-Trp-Ser-Arg (Enzo Life Sciences, USA). All assays were performed in the assay buffer containing 50 mM Tris, 100 mM NaCl. 5 mM CaCl2, and 0.1% Brij 35, pH 7.5. Human proMMP-2 and proMMP-9 were purchased from Sino biological (Germany). The proMMPs were activated by 1 mM APMA in the assay buffer at 37 °C for 2 h. After activation, MMP-2 was diluted to 6.5 nM of final assay concentration, and MMP-9 was diluted by the buffer to reach 10 nM of final assay concentration. In each well, 49 μl of enzyme solution was incubated with 1 μl of compounds of series of concentration (nM-mM in DMSO) at RT for 30 min. 2 μl of the FRET substrate was added right before the measurement at a final concentration of 25 μM. The rate of hydrolysis was monitored by quantifying the emission at 360 nm (ex: 280 nm). The emission was measured with intervals of the 30 s for 30 min with Synergy H1 Plate Reader (Agilent, USA). The measurements were done in triplicate. […] Then, curves were plotted as a function of the concentration of the inhibitor against the relative enzyme activity. Vmax was derived from the detected […] signal for each concentration and logistic fitting was performed to obtain IC50 values using Origin 2019b (OriginLab).

[2] = target: T2, MMP-9 (Homo sapiens, UniProt P14780); test: MMP-9 inhibition assay (fluorogenic peptide substrate); type: biochemical; set-up: remaining enzyme activity (% of control): scale not given here; conditions: for IC50: n.d: not detected
T2 construct: purchased Sino Biological 10327-HNAH
Method: as §1

[3] = Figure 5d, fragment combination joined by linker, read-out: MMP2 IC50
[4] = Figure 5d, fragment combination joined by linker, read-out: MMP9 IC50
[5] = mean ± SE, Fig. 5d unit inferred, µM, read-out: IC50
[6] = mean ± SE, Fig. 5e prints no unit, µM, read-out: IC50
[7] = MMP-9, concentration 1219.00 µM

T2 sequence (P14780 107-707 limits assumed): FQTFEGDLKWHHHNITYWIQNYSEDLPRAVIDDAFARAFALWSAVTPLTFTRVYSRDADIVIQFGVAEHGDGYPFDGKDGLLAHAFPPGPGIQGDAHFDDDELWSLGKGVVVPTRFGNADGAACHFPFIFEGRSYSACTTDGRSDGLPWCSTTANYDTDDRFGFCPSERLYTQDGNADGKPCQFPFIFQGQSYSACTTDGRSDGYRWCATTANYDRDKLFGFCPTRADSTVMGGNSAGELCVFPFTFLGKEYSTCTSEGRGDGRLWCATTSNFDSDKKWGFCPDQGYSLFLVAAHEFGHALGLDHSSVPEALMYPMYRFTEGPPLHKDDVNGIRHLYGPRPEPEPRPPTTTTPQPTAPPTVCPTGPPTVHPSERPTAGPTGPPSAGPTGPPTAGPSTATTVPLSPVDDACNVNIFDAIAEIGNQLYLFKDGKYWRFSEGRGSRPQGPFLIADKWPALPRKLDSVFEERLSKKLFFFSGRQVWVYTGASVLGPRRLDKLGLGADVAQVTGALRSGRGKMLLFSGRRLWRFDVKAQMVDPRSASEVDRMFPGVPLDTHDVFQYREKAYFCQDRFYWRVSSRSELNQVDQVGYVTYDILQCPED

## O=C(CSCCNC(=O)c1cncc(O)c1)NCCNC(=O)Cn1cnc2c(oc3ccccc32)c1=O [182_828 24]
[1]; [3]
  IC50: 33.3 µM
[2]; [4]
  IC50: 35.3 µM

## Cc1cc(=O)[nH]c(-n2nc(C)c(CCC(=O)NCCNC(=O)CC(=O)/C=C/CCCCNC(=O)c3cncc(O)c3)c2C)n1 [693+828 Linker 12]
[1]; MMP-2, concentration 0.00831 µM, read-out: Mean (MMP-2 dose-response, Supplementary fig 15)
  remaining activity at 0.00831 µM: 95.7%
[1]; MMP-2, concentration 0.04 µM, read-out: Mean (MMP-2 dose-response, Supplementary fig 15)
  remaining activity at 0.04 µM: 92.8%
[1]; MMP-2, concentration 0.21 µM, read-out: Mean (MMP-2 dose-response, Supplementary fig 15)
  remaining activity at 0.21 µM: 86.2%
[1]; MMP-2, concentration 1.04 µM, read-out: Mean (MMP-2 dose-response, Supplementary fig 15)
  remaining activity at 1.04 µM: 77.4%
[1]; MMP-2, concentration 5.19 µM, read-out: Mean (MMP-2 dose-response, Supplementary fig 15)
  remaining activity at 5.19 µM: 60.2%
[1]; MMP-2, concentration 25.96 µM, read-out: Mean (MMP-2 dose-response, Supplementary fig 15)
  remaining activity at 25.96 µM: 25.3%
[1]; MMP-2, concentration 129.80 µM, read-out: Mean (MMP-2 dose-response, Supplementary fig 15)
  remaining activity at 129.8 µM: 0%
[1]; MMP-2, concentration 649.00 µM, read-out: Mean (MMP-2 dose-response, Supplementary fig 15)
  remaining activity at 649 µM: 0%
[1]; [5]
  IC50: 10 µM
[2]; MMP-9, concentration 0.04 µM, read-out: Mean (MMP-9 dose-response, Supplementary fig 15)
  remaining activity at 0.04 µM: 95.5%
[2]; MMP-9, concentration 0.21 µM, read-out: Mean (MMP-9 dose-response, Supplementary fig 15)
  remaining activity at 0.21 µM: 89%
[2]; MMP-9, concentration 1.04 µM, read-out: Mean (MMP-9 dose-response, Supplementary fig 15)
  remaining activity at 1.04 µM: 89.5%
[2]; MMP-9, concentration 5.19 µM, read-out: Mean (MMP-9 dose-response, Supplementary fig 15)
  remaining activity at 5.19 µM: 71.7%
[2]; MMP-9, concentration 25.96 µM, read-out: Mean (MMP-9 dose-response, Supplementary fig 15)
  remaining activity at 25.96 µM: 32.6%
[2]; MMP-9, concentration 129.80 µM, read-out: Mean (MMP-9 dose-response, Supplementary fig 15)
  remaining activity at 129.8 µM: 0%
[2]; MMP-9, concentration 649.00 µM, read-out: Mean (MMP-9 dose-response, Supplementary fig 15)
  remaining activity at 649 µM: 0%
[2]; [6]
  IC50: 14.8 µM and 15 µM

## Cc1cc(=O)[nH]c(-n2nc(C)c(CCC(=O)NCCNC(=O)c3cncc(O)c3)c2C)n1 [693_828 1]
[1]; [3]
  IC50: 110 µM
[2]; [4]
  IC50: 232 µM

## O=C(Cn1cnc2c(oc3ccccc32)c1=O)NCCCCCCCCNC(=O)c1cncc(O)c1 [182+828 Linker 4]
[1]; MMP-2, concentration 0.0078 µM
  remaining activity (%): 107.56
[1]; MMP-2, concentration 0.20 µM
  remaining activity (%): 99.59
[1]; MMP-2, concentration 0.98 µM
  remaining activity (%): 97.94
[1]; MMP-2, concentration 4.88 µM
  remaining activity (%): 101.19
[1]; MMP-2, concentration 24.38 µM
  remaining activity (%): 85.36
[1]; MMP-2, concentration 121.90 µM
  remaining activity (%): 64.62
[1]; MMP-2, concentration 609.50 µM
  remaining activity (%): 31.91
[1]; MMP-2, concentration 0.04 µM
  remaining activity (%): 116.92
[1]; [5]
  IC50: 188 ± 25.7 µM
[2]; MMP-9, concentration 0.08 µM
  remaining enzyme activity (% of control): 90.17
[2]; MMP-9, concentration 0.39 µM
  remaining enzyme activity (% of control): 88.39
[2]; MMP-9, concentration 1.95 µM
  remaining enzyme activity (% of control): 91.84
[2]; MMP-9, concentration 9.75 µM
  remaining enzyme activity (% of control): 88.91
[2]; MMP-9, concentration 48.76 µM
  remaining enzyme activity (% of control): 78.10
[2]; MMP-9, concentration 243.80 µM
  remaining enzyme activity (% of control): 49.14
[2]; [7]
  remaining enzyme activity (% of control): 0.00
[2]; [6]
  IC50: 233 ± 38.3 µM

## O=C(CCC(=O)NCc1c[nH]nn1)NCCOCCOCCNC(=O)Cn1cnc2c(oc3ccccc32)c1=O [182+787 Linker 10]
[1]; MMP-2, concentration 0.0156 µM
  remaining activity (%): 104.21
[1]; MMP-2, concentration 0.08 µM
  remaining activity (%): 112.47
[1]; MMP-2, concentration 0.39 µM
  remaining activity (%): 110.12
[1]; MMP-2, concentration 1.95 µM
  remaining activity (%): 98.52
[1]; MMP-2, concentration 9.75 µM
  remaining activity (%): 97.01
[1]; MMP-2, concentration 48.76 µM
  remaining activity (%): 78.57
[1]; MMP-2, concentration 243.80 µM
  remaining activity (%): 30.14
[1]; MMP-2, concentration 1219.00 µM
  remaining activity (%): 0.00
[1]; [5]
  IC50: 137 ± 37.5 µM
[2]; MMP-9, concentration 0.08 µM
  remaining enzyme activity (% of control): 100.62
[2]; MMP-9, concentration 0.39 µM
  remaining enzyme activity (% of control): 94.43
[2]; MMP-9, concentration 1.95 µM
  remaining enzyme activity (% of control): 101.63
[2]; MMP-9, concentration 9.75 µM
  remaining enzyme activity (% of control): 94.48
[2]; MMP-9, concentration 48.76 µM
  remaining enzyme activity (% of control): 72.77
[2]; MMP-9, concentration 243.80 µM
  remaining enzyme activity (% of control): 28.00
[2]; [7]
  remaining enzyme activity (% of control): 0.00
[2]; [6]
  IC50: 126 ± 12 µM

## O=C(CSCCNC(=O)c1cncc(O)c1)NCC12CC3CC(CC(C3)C1)C2 [66+828 Linker 24]
[1]; MMP-2, concentration 0.00858 µM
  remaining activity (%): 98.41
[1]; MMP-2, concentration 0.0429 µM
  remaining activity (%): 98.85
[1]; MMP-2, concentration 0.21 µM
  remaining activity (%): 87.72
[1]; MMP-2, concentration 1.07 µM
  remaining activity (%): 96.38
[1]; MMP-2, concentration 5.36 µM
  remaining activity (%): 85.18
[1]; MMP-2, concentration 26.80 µM
  remaining activity (%): 89.19
[1]; MMP-2, concentration 670.10 µM
  remaining activity (%): 1.11
[1]; MMP-2, concentration […]
  remaining activity (%): 61.21
[1]; [5]
  IC50: 184 ± 17.3 µM
[2]; MMP-9, concentration 0.0429 µM
  remaining enzyme activity (% of control): 93.34
[2]; MMP-9, concentration 0.21 µM
  remaining enzyme activity (% of control): 95.33
[2]; MMP-9, concentration 1.07 µM
  remaining enzyme activity (% of control): 103.77
[2]; MMP-9, concentration 5.36 µM
  remaining enzyme activity (% of control): 97.03
[2]; MMP-9, concentration 26.80 µM
  remaining enzyme activity (% of control): 82.56
[2]; MMP-9, concentration 670.10 µM
  remaining enzyme activity (% of control): 15.33
[2]; MMP-9, concentration […]
  remaining enzyme activity (% of control): 65.61
[2]; [6]
  IC50: 216 ± 47.3 µM

## Cn1c(O)nc2cc(C(=O)NCCCCCCCCNC(=O)Cn3cnc4c(oc5ccccc54)c3=O)cnc21 [182+826 Linker 4]
[1]; MMP-2, concentration 0.12 µM
  remaining activity (%): 92.61
[1]; MMP-2, concentration 0.49 µM
  remaining activity (%): 95.31
[1]; MMP-2, concentration 1.95 µM
  remaining activity (%): 84.32
[1]; MMP-2, concentration 7.81 µM
  remaining activity (%): 92.35
[1]; MMP-2, concentration 31.25 µM
  remaining activity (%): 84.58
[1]; MMP-2, concentration 125.00 µM
  remaining activity (%): 82.25
[1]; MMP-2, concentration 500.00 µM
  remaining activity (%): 42.45
[1]; [5]
  IC50: 439 ± 56.5 µM
[2]; MMP-9, concentration 0.13 µM
  remaining enzyme activity (% of control): 96.35
[2]; MMP-9, concentration 0.50 µM
  remaining enzyme activity (% of control): 93.10
[2]; MMP-9, concentration 2.01 µM
  remaining enzyme activity (% of control): 95.02
[2]; MMP-9, concentration 8.03 µM
  remaining enzyme activity (% of control): 95.39
[2]; MMP-9, concentration 128.50 µM
  remaining enzyme activity (% of control): 75.89
[2]; MMP-9, concentration 514.00 µM
  remaining enzyme activity (% of control): 61.85

Reference: publication PMC10023787, “Trio-pharmacophore DNA-encoded chemical library for simultaneous selection of fragments and linkers” (Nature Communications, 2023)
